Results as given in BindingDB's records for doi:10.1016/s0960-894x(00)00312-7 (Signal Pharmaceuticals, 2000).

target: Protein c-Fos/Transcription factor Jun (Homo sapiens, UniProt P05412+P01100); assay: Inhibition of AP-1 (activator protein-1) mediated transcriptional activation in Jurkat T-cells
Sequence (P05412 whole entry): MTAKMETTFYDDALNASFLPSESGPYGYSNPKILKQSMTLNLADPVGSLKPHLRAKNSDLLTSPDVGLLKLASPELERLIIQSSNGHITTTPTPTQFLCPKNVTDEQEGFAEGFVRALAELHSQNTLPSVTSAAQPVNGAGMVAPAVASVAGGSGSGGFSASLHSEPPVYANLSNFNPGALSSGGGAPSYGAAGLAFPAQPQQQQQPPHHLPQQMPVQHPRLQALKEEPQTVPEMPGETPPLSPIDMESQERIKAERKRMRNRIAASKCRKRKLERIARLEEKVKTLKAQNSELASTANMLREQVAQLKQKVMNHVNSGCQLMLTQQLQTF
Sequence (P01100 whole entry): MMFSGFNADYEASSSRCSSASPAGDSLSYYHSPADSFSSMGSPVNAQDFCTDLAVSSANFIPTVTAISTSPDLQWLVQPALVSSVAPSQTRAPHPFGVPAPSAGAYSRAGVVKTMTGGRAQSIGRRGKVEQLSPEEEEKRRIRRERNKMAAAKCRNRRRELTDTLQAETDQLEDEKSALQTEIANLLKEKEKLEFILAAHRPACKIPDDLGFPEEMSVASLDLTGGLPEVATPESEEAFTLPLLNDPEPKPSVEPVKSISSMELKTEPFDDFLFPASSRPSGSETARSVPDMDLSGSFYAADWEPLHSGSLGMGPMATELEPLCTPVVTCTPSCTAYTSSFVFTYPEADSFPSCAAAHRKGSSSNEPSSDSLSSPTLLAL

IC50 [µM]	SMILES
3	CCOC(=O)c1cnc(-c2ccc(F)cc2)nc1N(C)N1C(=O)C=C(C)C1=O [2-(4-Fluoro-phenyl)-4-[methyl-(3-methyl-2,5-dioxo-2,5-dihydro-pyrrol-1-yl)-amino]-pyrimidine-5-carboxylic acid ethyl ester]
10	CCOC(=O)c1cnc(C(F)(F)F)nc1NN1C(=O)C=CC1=O [ethyl 4-(2,5-dioxo-2H-pyrrol-1(5H)-ylamino)-2-(trifluoromethyl)pyrimidine-5-carboxylate]
1	CCOC(=O)c1cnc(C(C)(C)C)nc1NN1C(=O)C=C(C)C1=O [ethyl 2-tert-butyl-4-(3-methyl-2,5-dioxo-2H-pyrrol-1(5H)-ylamino)pyrimidine-5-carboxylate]
1	CCOC(=O)c1cnc(C2CC2)nc1NN1C(=O)C=C(C)C1=O [2-Cyclopropyl-4-(3-methyl-2,5-dioxo-2,5-dihydro-pyrrol-1-ylamino)-pyrimidine-5-carboxylic acid ethyl ester]
0.7	CCOC(=O)c1cnc(C(=O)c2ccco2)nc1NN1C(=O)C=C(C)C1=O [ethyl 2-(furan-2-carbonyl)-4-(3-methyl-2,5-dioxo-2H-pyrrol-1(5H)-ylamino)pyrimidine-5-carboxylate]
0.3	CC1=CC(=O)N(Nc2nc(-c3cccs3)ncc2-c2nnc(C)o2)C1=O [3-methyl-1-(5-(5-methyl-1,3,4-oxadiazol-2-yl)-2-(thiophen-2-yl)pyrimidin-4-ylamino)-1H-pyrrole-2,5-dione]
10	CCOC(=O)c1cnc(S(=O)(=O)c2ccccc2)nc1NN1C(=O)C=C(C)C1=O [2-Benzenesulfonyl-4-(3-methyl-2,5-dioxo-2,5-dihydro-pyrrol-1-ylamino)-pyrimidine-5-carboxylic acid ethyl ester]
10	CCOC(=O)c1cnc(C(F)(F)F)nc1NN1C(=O)C(C)=C(C)C1=O [ethyl 4-(3,4-dimethyl-2,5-dioxo-2H-pyrrol-1(5H)-ylamino)-2-(trifluoromethyl)pyrimidine-5-carboxylate]
20	CCOC(=O)c1cnc(C(F)(F)F)nc1NN1C(=O)C=C(c2ccccc2)C1=O [4-(2,5-Dioxo-3-phenyl-2,5-dihydro-pyrrol-1-ylamino)-2-trifluoromethyl-pyrimidine-5-carboxylic acid ethyl ester]
10	CCOC(=O)c1cnc(CC)nc1N(C)N1C(=O)C=C(C)C1=O [ethyl 2-ethyl-4-(methyl(3-methyl-2,5-dioxo-2H-pyrrol-1(5H)-yl)amino)pyrimidine-5-carboxylate]
1	CCOC(=O)c1cnc(C(F)(F)F)nc1NN1C(=O)C=C(C)C1=O [4-(3-Methyl-2,5-dioxo-2,5-dihydro-pyrrol-1-ylamino)-2-trifluoromethyl-pyrimidine-5-carboxylic acid ethyl ester]
0.02	CCOC(=O)c1cnc(-c2cccs2)nc1NN1C(=O)C=C(C)C1=O [ethyl 4-(3-methyl-2,5-dioxo-2H-pyrrol-1(5H)-ylamino)-2-(thiophen-2-yl)pyrimidine-5-carboxylate]
0.3	CC1=CC(=O)N(Nc2nc(-c3cccs3)ncc2-c2cc(C)no2)C1=O [3-methyl-1-(5-(3-methylisoxazol-5-yl)-2-(thiophen-2-yl)pyrimidin-4-ylamino)-1H-pyrrole-2,5-dione]
0.7	CCOC(=O)c1cnc(-c2ccc(F)cc2)nc1NN1C(=O)C=C(C)C1=O [ethyl 2-(4-fluorophenyl)-4-(3-methyl-2,5-dioxo-2H-pyrrol-1(5H)-ylamino)pyrimidine-5-carboxylate]
7	CCOC(=O)c1cnc(-c2cccc([N+](=O)[O-])c2)nc1NN1C(=O)C=C(C)C1=O [4-(3-Methyl-2,5-dioxo-2,5-dihydro-pyrrol-1-ylamino)-2-(3-nitro-phenyl)-pyrimidine-5-carboxylic acid ethyl ester]
0.3	CCOC(=O)c1cnc(-c2ccc(Cl)s2)nc1NN1C(=O)C=C(C)C1=O [ethyl 2-(5-chlorothiophen-2-yl)-4-(3-methyl-2,5-dioxo-2H-pyrrol-1(5H)-ylamino)pyrimidine-5-carboxylate]
1	CCOC(=O)c1cnc(Sc2ccccc2)nc1NN1C(=O)C=C(C)C1=O [ethyl 4-(3-methyl-2,5-dioxo-2,5-dihydro-1H-pyrrol-1-ylamino)-2-(phenylthio)pyrimidine-5-carboxylate]
2	CCOC(=O)c1cnc(-c2ccccc2)nc1N(C)N1C(=O)C=C(C)C1=O [ethyl 4-(methyl(3-methyl-2,5-dioxo-2H-pyrrol-1(5H)-yl)amino)-2-phenylpyrimidine-5-carboxylate]
1	CCOC(=O)c1cnc(-c2cccs2)nc1N(C)N1C(=O)C=C(C)C1=O [ethyl 4-(methyl(3-methyl-2,5-dioxo-2H-pyrrol-1(5H)-yl)amino)-2-(thiophen-2-yl)pyrimidine-5-carboxylate]
0.3	CCOC(=O)c1cnc(-c2ccc(Cl)cc2)nc1NN1C(=O)C=C(C)C1=O [ethyl 2-(4-chlorophenyl)-4-(3-methyl-2,5-dioxo-2H-pyrrol-1(5H)-ylamino)pyrimidine-5-carboxylate]

IC50 [µM]	SMILES
5	CCOC(=O)c1cnc(-c2cccc(OC)c2)nc1NN1C(=O)C=C(C)C1=O [ethyl 2-(3-methoxyphenyl)-4-(3-methyl-2,5-dioxo-2H-pyrrol-1(5H)-ylamino)pyrimidine-5-carboxylate]
0.3	CCOC(=O)c1cnc(-c2cc(Cl)cc(Cl)c2)nc1NN1C(=O)C=C(C)C1=O [ethyl 2-(3,5-dichlorophenyl)-4-(3-methyl-2,5-dioxo-2H-pyrrol-1(5H)-ylamino)pyrimidine-5-carboxylate]
16	CCOC(=O)c1cnc(C)nc1NN1C(=O)C=C(C)C1=O [2-Methyl-4-(3-methyl-2,5-dioxo-2,5-dihydro-pyrrol-1-ylamino)-pyrimidine-5-carboxylic acid ethyl ester]
6	CCOC(=O)c1cnc(-c2cnc3ccccc3c2)nc1NN1C(=O)C=C(C)C1=O [ethyl 4-(3-methyl-2,5-dioxo-2H-pyrrol-1(5H)-ylamino)-2-(quinolin-3-yl)pyrimidine-5-carboxylate]
15	CCOC(=O)c1cnc(Oc2ccccc2)nc1NN1C(=O)C=C(C)C1=O [ethyl 4-(3-methyl-2,5-dioxo-2H-pyrrol-1(5H)-ylamino)-2-phenoxypyrimidine-5-carboxylate]
0.2	CC1=CC(=O)N(Nc2nc(-c3cccs3)ncc2-c2nnn(C)n2)C1=O [3-methyl-1-(5-(2-methyl-2H-tetrazol-5-yl)-2-(thiophen-2-yl)pyrimidin-4-ylamino)-1H-pyrrole-2,5-dione]
0.1	CCOC(=O)c1cnc(-c2ccccc2)nc1NN1C(=O)C=C(C)C1=O [4-(3-Methyl-2,5-dioxo-2,5-dihydro-pyrrol-1-ylamino)-2-phenyl-pyrimidine-5-carboxylic acid ethyl ester]
0.2	CC1=CC(=O)N(Nc2nc(-c3cccs3)ncc2-c2nc(C)co2)C1=O [3-methyl-1-(5-(4-methyloxazol-2-yl)-2-(thiophen-2-yl)pyrimidin-4-ylamino)-1H-pyrrole-2,5-dione]
0.4	CCOC(=O)c1cnc(-c2ccc(C(F)(F)F)cc2)nc1NN1C(=O)C=C(C)C1=O [4-(3-Methyl-2,5-dioxo-2,5-dihydro-pyrrol-1-ylamino)-2-(4-trifluoromethyl-phenyl)-pyrimidine-5-carboxylic acid ethyl ester]
8	CCOC(=O)c1cnc(-c2csc(C)n2)nc1NN1C(=O)C=C(C)C1=O [4-(3-Methyl-2,5-dioxo-2,5-dihydro-pyrrol-1-ylamino)-2-(2-methyl-thiazol-4-yl)-pyrimidine-5-carboxylic acid ethyl ester]
2	CCOC(=O)c1cnc(CC2=CCCCC2)nc1NN1C(=O)C=C(C)C1=O [2-Cyclohex-1-enylmethyl-4-(3-methyl-2,5-dioxo-2,5-dihydro-pyrrol-1-ylamino)-pyrimidine-5-carboxylic acid ethyl ester]
10	CCOC(=O)c1cnc(CC)nc1NN1C(=O)C=C(C)C1=O [2-Ethyl-4-(3-methyl-2,5-dioxo-2,5-dihydro-pyrrol-1-ylamino)-pyrimidine-5-carboxylic acid ethyl ester]
4	CCOC(=O)c1cnc(-c2cc3ccccc3s2)nc1NN1C(=O)C=C(C)C1=O [2-Benzo[b]thiophen-2-yl-4-(3-methyl-2,5-dioxo-2,5-dihydro-pyrrol-1-ylamino)-pyrimidine-5-carboxylic acid ethyl ester]
7	CCOC(=O)c1cnc(Cc2ccccc2)nc1NN1C(=O)C=C(C)C1=O [ethyl 2-benzyl-4-(3-methyl-2,5-dioxo-2H-pyrrol-1(5H)-ylamino)pyrimidine-5-carboxylate]
0.1	CCOC(=O)c1cnc(-c2ccsc2)nc1NN1C(=O)C=C(C)C1=O [ethyl 4-(3-methyl-2,5-dioxo-2H-pyrrol-1(5H)-ylamino)-2-(thiophen-3-yl)pyrimidine-5-carboxylate]
0.2	CCOC(=O)c1cnc(-c2ccc(C)s2)nc1NN1C(=O)C=C(C)C1=O [4-(3-Methyl-2,5-dioxo-2,5-dihydro-pyrrol-1-ylamino)-2-(5-methyl-thiophen-2-yl)-pyrimidine-5-carboxylic acid ethyl ester]
0.2	CCOC(=O)c1cnc(SC)nc1NN1C(=O)C=C(C)C1=O [4-(3-Methyl-2,5-dioxo-2,5-dihydro-pyrrol-1-ylamino)-2-methylsulfanyl-pyrimidine-5-carboxylic acid ethyl ester]
5	CC1=CC(=O)N(Nc2nc(-c3cccs3)ncc2C#N)C1=O [4-(3-Methyl-2,5-dioxo-2,5-dihydro-pyrrol-1-ylamino)-2-thiophen-2-yl-pyrimidine-5-carbonitrile]
0.9	CCOC(=O)c1cnc(-c2ccc(OC)cc2)nc1NN1C(=O)C=C(C)C1=O [2-(4-Methoxy-phenyl)-4-(3-methyl-2,5-dioxo-2,5-dihydro-pyrrol-1-ylamino)-pyrimidine-5-carboxylic acid ethyl ester]
0.2	CC1=CC(=O)N(Nc2nc(-c3cccs3)ncc2C2=NCCO2)C1=O [1-[5-(4,5-Dihydro-oxazol-2-yl)-2-thiophen-2-yl-pyrimidin-4-ylamino]-3-methyl-pyrrole-2,5-dione]
